Laboratory results from patent US8062995B2, “Dioxazine-substituted arylamides” (Bayer CropScience AG, priority 2005, dated 2011).

Assays:
[1] = tested on: caterpillars of the army worm (Spodoptera frugiperda); assay: Spodoptera frugiperda test (SPODFR spray treatment); assay type: in vivo; conditions: for Kill rate after 7d in %: 100 g/ha, spray treatment
Method: Spodoptera frugiperda Test (SPODFR Spray Treatment) Solvents: 78 parts by weight of acetone • • 1.5 parts by weight of dimethylformamide Emulsifier: 0.5 part by weight of alkylaryl polyglycol ether To produce a suitable preparation of active compound, 1 part by weight of active compound is mixed with the stated amounts of solvents and emulsifier and the concentrate is diluted with emulsifier-containing water to the desired concentration. Discs of maize leaves (Zea mays) are sprayed with an active compound preparation of the desired concentration and after drying populated with caterpillars of the army worm (Spodoptera frugiperda). After the desired period of time, the activity in % is determined. 100% means that all of the caterpillars have been killed; 0% means that none of the caterpillars have been killed.

[2] = tested on: Spodoptera frugiperda larvae; assay: Spodoptera frugiperda test (treatment by watering); assay type: in vivo; conditions: for Kill rate after 14d in %: 20 ppm, treatment by watering
Method: Spodoptera frugiperda Test Solvent: 7 parts by weight of dimethylformamide Emulsifier: 2 parts by weight of alkylaryl polyglycol ether To produce a suitable preparation of active compound, 1 part by weight of active compound is mixed with the stated amounts of solvent and emulsifier and the concentrate is diluted with water to the desired concentration. Maize plants (Zea mays) are watered with an active compound preparation of the desired concentration and infected with Spodoptera frugiperda larvae. After the desired period of time, the kill in % is determined. 100% means that all larvae have been killed; 0% means that none of the larvae have been killed.

[3] = tested on: caterpillars of the army worm (Spodoptera exigua); assay: Spodoptera exigua test (leaf dip); assay type: in vivo
Method: (§1) Spodoptera exigua Test Solvent: 7 parts by weight of dimethylformamide Emulsifier: 2 parts by weight of alkylaryl polyglycol ether To produce a suitable preparation of active compound, 1 part by weight of active compound is mixed with the stated amounts of solvent and emulsifier and the concentrate is diluted with emulsifier-containing water to the desired concentration. Cabbage leaves (Brassica oleracea) are treated by being dipped into the active compound preparation of the desired concentration and populated with caterpillars of the army worm (Spodoptera exigua) while the leaves are still moist. After the desired period of time, the kill in % is determined. 100% means that all caterpillars have been killed; 0% means that none of the caterpillars have been killed.

[4] = tested on: larvae of the mustard beetle (Phaedon cochleariae); assay: Phaedon test (sprayed Chinese cabbage discs); assay type: in vivo; conditions: for Kill rate after 7d in %: 100 g/ha
Method: (§2) Phaedon Test Solvents: 78 parts by weight of acetone • • 1.5 parts by weight of dimethylformamide Emulsifier: 0.5 part by weight of alkylaryl polyglycol ether To produce a suitable preparation of active compound, 1 part by weight of active compound is mixed with the stated amounts of solvents and emulsifier and the concentrate is diluted with emulsifier-containing water to the desired concentration. Discs of Chinese cabbage (Brassica pekinensis) are sprayed with an active compound preparation of the desired concentration and, after drying, populated with larvae of the mustard beetle (Phaedon cochleariae). After the desired period of time, the activity in % is determined. 100% means that all beetle larvae have been killed; 0% means that none of the beetle larvae have been killed.

[5] = tested on: Spodoptera exigua, resistant strain; assay: Spodoptera exigua test; resistant strain; assay type: in vivo; conditions: for Kill rate after 7d in %: resistant strain
Method: Spodoptera exigua Test; Resistant Strain
Solvent: 7 parts by weight of dimethylformamide
Emulsifier: 2 parts by weight of alkylaryl polyglycol ether
To produce a suitable preparation of active compound, 1 part by weight of active compound is mixed with the stated amounts of solvent and emulsifier and the concentrate is diluted with emulsifier-containing water to the desired concentration.
Cabbage leaves (Brassica oleracea) are treated by being dipped into the active compound preparation of the desired concentration and populated with caterpillars of the army worm (Spodoptera exigua, resistant strain) while the leaves are still moist.
After the desired period of time, the kill in % is determined. 100% means that all caterpillars have been killed; 0% means that none of the caterpillars have been killed.

[6] = logP determination by HPLC (reversed-phase C18), EEC Directive 79/831 Annex V.A8; assay type: physicochemical; conditions: HPLC reversed-phase C18, 43° C., acidic range pH 2.7
Method: The logP values given in the tables and Preparation Examples above are determined in accordance with EEC Directive 79/831 Annex V.A8 by HPLC (High Performance Liquid Chromatography) on a reversed-phase column (C 18). Temperature: 43° C. The determination by LC-MS in the acidic range is carried out at pH 2.7 using 0.1% aqueous formic acid and acetonitrile (contains 0.1% formic acid) as mobile phases; linear gradient from 10% acetonitrile to 95% acetonitrile. Calibration is carried out using unbranched alkan-2-ones (having 3 to 16 carbon atoms) with known logP values (determination of the logP values by the retention times using linear interpolation between two successive alkanones).

[7] = tested on: caterpillars of the diamondback moth (Plutella xylostella); assay: Plutella test (leaf dip); assay type: in vivo
Method: as §1, with “Plutella” for “Spodoptera exigua”, “Cabbages” for “Cabbage”, “diamondback moth (Plutella xylostella)” for “army worm (Spodoptera exigua)”

[8] = tested on: caterpillars of the cotton bollworm (Heliothis armigera); assay: Heliothis armigera test (leaf dip); assay type: in vivo
Method: as §1, with “Heliothis armigera” for “Spodoptera exigua”, “Soya bean” for “Cabbage”, “(Glycine max.)” for “(Brassica oleracea)”, “cotton bollworm (Heliothis armigera)” for “army worm (Spodoptera exigua)”

[9] = tested on: green peach aphid (Myzus persicae); assay: Myzus test (MYZUPE spray treatment); assay type: in vivo; conditions: for Kill rate after 5d in %: 100 g/ha, spray treatment
Method: as §2, with “Myzus” for “Phaedon”, “Test (MYZUPE Spray Treatment)” for “Test”, “pekinensis), which are infested by all stages of the green peach aphid (Myzus persicae)” for “pekinensis)”, “concentration.” for “concentration and, after drying, populated with larvae of the mustard beetle (Phaedon cochleariae).”, “aphids” for “beetle larvae”

[10] = tested on: green peach aphid (Myzus persicae); assay: Myzus test; oral; assay type: in vivo; conditions: for Kill rate after 5d in %: 100 ppm, oral
Method: Myzus Test; Oral Solvent: 80 parts by weight of acetone To produce a suitable preparation of active compound, 1 part by weight of active compound is mixed with the stated amounts of solvent and the concentrate is diluted with water to the desired concentration. Vessels are populated with all stages of the green peach aphid (Myzus persicae) which are treated by sucking the active compound preparation of the desired concentration. After the desired period of time, the activity in % is determined. 100% means that all aphids have been killed; 0% means that none of the aphids have been killed.

SMILES: Cc1cc(Cl)cc(C2=NOCCO2)c1NC(=O)c1cc(C(F)(F)F)nn1-c1ncccc1Cl [Example I-1-6]
- activity in the Spodoptera frugiperda test, spray treatment (in words) [1]: good activity
- Kill rate after 7d in % [1]: 100%
- activity in the Spodoptera frugiperda test, watering (in words) [2]: good activity
- Kill rate after 14d in % [2]: 98%
- activity in the Spodoptera exigua test (in words) [3]: good activity
- Kill rate after 7d in % ([3]; 100 ppm): 100%
- activity in the Phaedon test (in words) [4]: good activity
- Kill rate after 7d in % [4]: 100%
- activity in the Spodoptera exigua test, resistant strain (in words) [5]: good activity
- Kill rate after 7d in % ([5]; 20 ppm): 100%
- logP [6]: 3.50
- activity in the Plutella test (in words) [7]: good activity
- Kill rate after 7d in % ([7]; 20 ppm): 100%

SMILES: Cc1cc(Br)cc(C2=NOCCO2)c1NC(=O)c1cc(C(F)(F)F)nn1-c1ncccc1Cl [Example I-1-11]
- activity in the Spodoptera frugiperda test, spray treatment (in words) [1]: good activity
- Kill rate after 7d in % [1]: 100%
- activity in the Spodoptera frugiperda test, watering (in words) [2]: good activity
- Kill rate after 14d in % [2]: 98%
- activity in the Spodoptera exigua test (in words) [3]: good activity
- Kill rate after 7d in % ([3]; 20 ppm): 100%
- activity in the Phaedon test (in words) [4]: good activity
- Kill rate after 7d in % [4]: 100%
- activity in the Spodoptera exigua test, resistant strain (in words) [5]: good activity
- Kill rate after 7d in % ([5]; 20 ppm): 80%
- activity in the Heliothis armigera test (in words) [8]: good activity
- Kill rate after 7d in % ([8]; 20 ppm): 100%
- logP [6]: 3.58
- activity in the Plutella test (in words) [7]: good activity
- Kill rate after 7d in % ([7]; 20 ppm): 80%

SMILES: Cc1cccc(C2=NOCCN2)c1NC(=O)c1cc(Cl)nn1-c1ncccc1Cl [Example I-1-17]
- activity in the Spodoptera frugiperda test, spray treatment (in words) [1]: good activity
- Kill rate after 7d in % [1]: 100%
- Kill rate after 14d in % [2]: 98%
- activity in the Spodoptera exigua test (in words) [3]: good activity
- Kill rate after 7d in % ([3]; 4 ppm): 100%
- activity in the Phaedon test (in words) [4]: good activity
- activity in the Myzus test, spray treatment (in words) [9]: good activity
- Kill rate after 5d in % [9]: 100%
- activity in the Spodoptera exigua test, resistant strain (in words) [5]: good activity
- Kill rate after 7d in % ([5]; 4 ppm): 100%
- activity in the Heliothis armigera test (in words) [8]: good activity
- Kill rate after 7d in % ([8]; 4 ppm): 100%
- logP [6]: 1.65
- activity in the Plutella test (in words) [7]: good activity
- Kill rate after 7d in % ([7]; 4 ppm): 100%

SMILES: Cc1cc(I)cc(C2=NOCCN2)c1NC(=O)c1cc(Br)cn1-c1ncccc1Cl [Example I-1-22]
- activity in the Spodoptera frugiperda test, spray treatment (in words) [1]: good activity
- Kill rate after 7d in % [1]: 100%
- activity in the Phaedon test (in words) [4]: good activity
- Kill rate after 7d in % [4]: 100%
- activity in the Myzus test, spray treatment (in words) [9]: good activity
- Kill rate after 5d in % [9]: 100%
- activity in the Myzus test, oral (in words) [10]: good activity
- Kill rate after 5d in % [10]: 100%
- logP [6]: 2.39

SMILES: Cc1cc(I)cc(C2=NOCCN2)c1NC(=O)c1cc(Br)nn1-c1ncccc1Cl [Example I-1-23]
- activity in the Spodoptera frugiperda test, spray treatment (in words) [1]: good activity
- Kill rate after 7d in % [1]: 100%
- activity in the Phaedon test (in words) [4]: good activity
- Kill rate after 7d in % [4]: 100%
- activity in the Myzus test, spray treatment (in words) [9]: good activity
- Kill rate after 5d in % [9]: 90%
- activity in the Myzus test, oral (in words) [10]: good activity
- Kill rate after 5d in % [10]: 100%
- logP [6]: 2.21

SMILES: Cc1cc(I)cc(C2=NOCCN2)c1NC(=O)c1cc(C(F)(F)F)nn1-c1ncccc1Cl [Example I-1-24]
- activity in the Spodoptera frugiperda test, spray treatment (in words) [1]: good activity
- Kill rate after 7d in % [1]: 100%
- activity in the Phaedon test (in words) [4]: good activity
- Kill rate after 7d in % [4]: 100%
- activity in the Myzus test, spray treatment (in words) [9]: good activity
- Kill rate after 5d in % [9]: 90%
- activity in the Myzus test, oral (in words) [10]: good activity
- Kill rate after 5d in % [10]: 100%
- logP [6]: 2.66
